The structures appear in SMILES notation. pIC50: −log10 of the molar value. Structures can show the parent of a compound that is named as a salt.

IC50 data for 20 compounds are collected here from patent publication US9556179B2 (BRISTOL-MYERS SQUIBB COMPANY, priority 2012, dated 2017).

Assay [1] has as its target CK1δ (Homo sapiens (Human), UniProt P48730). Description: CK1δ kinase assay (Caliper LABCHIP electrophoretic separation of fluoresceinated peptide substrate and product). The format is biochemical. The following applies: 200 pM enzyme, 50 μM ATP, 22 hours at room temperature. In outline: (§1)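 Kinase reactions ran 22 h at room temperature, were stopped with EDTA, and phosphorylated product was separated electrophoretically from unphosphorylated fluoresceinated peptide. Compounds were tested at eleven concentrations from 10 mM DMSO stocks. IC50 by non-linear regression.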

In assay [2] the target is CK1ε (Homo sapiens (Human), UniProt P49674). The assay can be described thus: CK1ε kinase assay (Caliper LABCHIP electrophoretic separation of fluoresceinated peptide substrate and product). As to conditions: 200 pM enzyme, 50 μM ATP, 22 hours at room temperature. It is filed as biochemical. In outline: as §1
CK1ε, sequence (P49674 whole entry): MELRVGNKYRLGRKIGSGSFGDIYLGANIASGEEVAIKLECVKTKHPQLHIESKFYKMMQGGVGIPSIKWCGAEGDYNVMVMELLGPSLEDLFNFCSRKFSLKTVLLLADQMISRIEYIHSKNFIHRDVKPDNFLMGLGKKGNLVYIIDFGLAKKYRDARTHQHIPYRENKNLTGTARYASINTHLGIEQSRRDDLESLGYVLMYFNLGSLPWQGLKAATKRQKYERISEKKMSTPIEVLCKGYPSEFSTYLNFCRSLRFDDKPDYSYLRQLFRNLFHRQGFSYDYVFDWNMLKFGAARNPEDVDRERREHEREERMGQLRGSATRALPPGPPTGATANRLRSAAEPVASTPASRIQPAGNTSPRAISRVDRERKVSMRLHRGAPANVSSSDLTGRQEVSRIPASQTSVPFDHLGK

CK1δ, sequence (P48730 whole entry): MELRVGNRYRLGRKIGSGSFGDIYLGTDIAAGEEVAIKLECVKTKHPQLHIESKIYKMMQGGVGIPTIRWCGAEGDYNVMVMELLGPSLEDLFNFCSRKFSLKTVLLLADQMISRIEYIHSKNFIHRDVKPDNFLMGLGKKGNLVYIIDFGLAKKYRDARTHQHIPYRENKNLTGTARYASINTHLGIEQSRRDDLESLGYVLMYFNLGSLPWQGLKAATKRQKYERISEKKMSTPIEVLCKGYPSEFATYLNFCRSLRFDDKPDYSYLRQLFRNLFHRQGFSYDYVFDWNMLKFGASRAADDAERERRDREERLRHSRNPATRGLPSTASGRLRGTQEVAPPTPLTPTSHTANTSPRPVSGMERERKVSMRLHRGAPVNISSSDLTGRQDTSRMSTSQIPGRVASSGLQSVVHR

As to `O=C(Nc1cn2nc(-c3c(-c4ccc(F)cc4)ncn3CCN3CCOCC3)ccc2n1)c1ccnc2ccccc12` [Compound 166, N-(6-(4-(4-fluorophenyl)-1-(2-morpholinoethyl)-1H-imidazol-5-yl)imidazo[1,2-b]pyridazin-2-yl)quinoline-4-carboxamide], the negative logarithm of the IC50 (pIC50) in assay [1] is 9.72; in assay [2], 8.88.

Regarding `O=C(Nc1cn2nc(-c3c(-c4ccc(F)cc4)ncn3CCN3CCOCC3)ccc2n1)c1cccc(-c2cccnc2)c1` [Compound 167, N-(6-(4-(4-fluorophenyl)-1-(2-morpholinoethyl)-1H-imidazol-5-yl)imidazo[1,2-b]pyridazin-2-yl)-3-(pyridin-3-yl)benzamide], the pIC50 is 9.98 in assay [1] and 9.16 in assay [2].

For the compound `O=C(Nc1cn2nc(-c3c(-c4ccc(F)cc4)ncn3CCN3CCOCC3)ccc2n1)c1ccnc(N2CCOCC2)c1` [Compound 168, N-(6-(4-(4-fluorophenyl)-1-(2-morpholinoethyl)-1H-imidazol-5-yl)imidazo[1,2-b]pyridazin-2-yl)-2-morpholinoisonicotinamide], the pIC50 was 9.96 in assay [1] and 8.76 in assay [2].

Take `O=C(Nc1cn2nc(-c3c(-c4ccc(F)cc4)nc4ccccn34)ccc2n1)c1cc(F)nc(F)c1` [Compound 169, 2,6-difluoro-N-(6-(2-(4-fluorophenyl)imidazo[1,2-a]pyridin-3-yl)imidazo[1,2-b]pyridazin-2-yl)isonicotinamide]: the pIC50 in assay [1] was 9.31; in assay [2], 8.28.

Consider `O=C(Nc1cn2nc(-c3c(-c4ccc(F)cc4)nc4ccccn34)ccc2n1)c1ccc(-c2cc[nH]n2)cc1` [Compound 170, N-(6-(2-(4-fluorophenyl)imidazo[1,2-a]pyridin-3-yl)imidazo[1,2-b]pyridazin-2-yl)-4-(1H-pyrazol-3-yl) benzamide], for which the pIC50 in assay [1] was 9.13; in assay [2], 8.07.

For the compound `Cn1ccc(-c2cccc(C(=O)Nc3cn4nc(-c5c(-c6ccc(F)cc6)nc6ccccn56)ccc4n3)c2)n1` [Compound 171, N-(6-(2-(4-fluorophenyl)imidazo[1,2-a]pyridin-3-yl)imidazo[1,2-b]pyridazin-2-yl)-3-(1-methyl-1H-pyrazol-3-yl)benzamide], the pIC50 is 8.70 in assay [1] and 8.11 in assay [2].

On to `O=C(Nc1cn2nc(-c3c(-c4ccc(F)cc4)nc4ccccn34)ccc2n1)c1cnc2ccccc2n1` [Compound 175, N-(6-(2-(4-fluorophenyl)imidazo[1,2-a]pyridin-3-yl)imidazo[1,2-b]pyridazin-2-yl)-2-quinoxalinecarboxamide], for which the pIC50 in assay [1] was 8.41; in assay [2], 7.71.

`O=C(Nc1cn2nc(-c3c(-c4ccc(F)cc4)nc4ccccn34)ccc2n1)c1csnn1` [Compound 176, N-(6-(2-(4-fluorophenyl)imidazo[1,2-a]pyridin-3-yl)imidazo[1,2-b]pyridazin-2-yl)-1,2,3-thiadiazole-4-carboxamide]: the pIC50 in assay [1] was 8.25; in assay [2], 7.32.

On to `O=C(Nc1cn2nc(-c3c(-c4ccc(F)cc4)nc4ccccn34)ccc2n1)c1cc[nH]n1` [Compound 177, N-(6-(2-(4-fluorophenyl)imidazo[1,2-a]pyridin-3-yl)imidazo[1,2-b]pyridazin-2-yl)-1H-pyrazole-3-carboxamide], for which the pIC50 was 8.17 in assay [1] and 7.62 in assay [2].

As for `Cc1nnsc1C(=O)Nc1cn2nc(-c3c(-c4ccc(F)cc4)nc4ccccn34)ccc2n1` [Compound 178, N-(6-(2-(4-fluorophenyl)imidazo[1,2-a]pyridin-3-yl)imidazo[1,2-b]pyridazin-2-yl)-4-methyl-1,2,3-thiadiazole-5-carboxamide], the pIC50 was 6.70 in assay [1] and 5.82 in assay [2].

In the case of `Cc1cc(C(=O)Nc2cn3nc(-c4c(-c5ccc(F)cc5)nc5ccccn45)ccc3n2)on1` [Compound 179, N-(6-(2-(4-fluorophenyl)imidazo[1,2-a]pyridin-3-yl)imidazo[1,2-b]pyridazin-2-yl)-3-methyl-5-isoxazolecarboxamide], the pIC50 in assay [1] is 9.69; in assay [2], 8.53.

For `Cn1nccc1C(=O)Nc1cn2nc(-c3c(-c4ccc(F)cc4)nc4ccccn34)ccc2n1` [Compound 180, N-(6-(2-(4-fluorophenyl)imidazo[1,2-a]pyridin-3-yl)imidazo[1,2-b]pyridazin-2-yl)-1-methyl-1H-pyrazole-5-carboxamide], the pIC50 was 8.80 in assay [1] and 7.92 in assay [2].

`Cn1ccc(C(=O)Nc2cn3nc(-c4c(-c5ccc(F)cc5)nc5ccccn45)ccc3n2)n1` [Compound 181, N-(6-(2-(4-fluorophenyl)imidazo[1,2-a]pyridin-3-yl)imidazo[1,2-b]pyridazin-2-yl)-1-methyl-1H-pyrazole-3-carboxamide]: the values for the pIC50 in assay [1] and in assay [2] were 8.40 and 7.97, respectively.

For the compound `O=C(Nc1cn2nc(-c3c(-c4ccc(F)cc4)nc4ccccn34)ccc2n1)c1cncnc1` [Compound 182, N-(6-(2-(4-fluorophenyl)imidazo[1,2-a]pyridin-3-yl)imidazo[1,2-b]pyridazin-2-yl)-5-pyrimidinecarboxamide], the pIC50 in assay [1] was 9.28; in assay [2], 8.21.

For the compound `N#Cc1ccc(C(=O)Nc2cn3nc(-c4c(-c5ccc(F)cc5)nc5ccccn45)ccc3n2)cn1` [Compound 183, 6-cyano-N-(6-(2-(4-fluorophenyl)imidazo[1,2-a]pyridin-3-yl)imidazo[1,2-b]pyridazin-2-yl)nicotinamide], the pIC50 was 9.68 in assay [1] and 8.42 in assay [2].

For the compound `O=C(Nc1cn2nc(-c3c(-c4ccc(F)cc4)nc4ccccn34)ccc2n1)c1nc2ccccc2s1` [Compound 184, N-(6-(2-(4-fluorophenyl)imidazo[1,2-a]pyridin-3-yl)imidazo[1,2-b]pyridazin-2-yl)-1,3-benzothiazole-2-carboxamide], the pIC50 in assay [1] is 8.12; in assay [2] it was 7.11.

Consider `O=C(Nc1cn2nc(-c3c(-c4ccc(F)cc4)nc4ccccn34)ccc2n1)c1ccncc1` [Compound 186, N-(6-(2-(4-fluorophenyl)imidazo[1,2-a]pyridin-3-yl)imidazo[1,2-b]pyridazin-2-yl)isonicotinamide], for which the pIC50 is 7.99 in assay [1] and 7.94 in assay [2].

In the case of `O=C(Nc1cn2nc(-c3c(-c4ccc(F)cc4)nc4ccccn34)ccc2n1)c1csc(-c2ccncc2)n1` [Compound 187, N-(6-(2-(4-fluorophenyl)imidazo[1,2-a]pyridin-3-yl)imidazo[1,2-b]pyridazin-2-yl)-2-(pyridin-4-yl)thiazole-4-carboxamide], the pIC50 in assay [1] was 7.98; in assay [2], 7.52.

With `O=C(Nc1cn2nc(-c3c(-c4ccc(F)cc4)nc4ccccn34)ccc2n1)c1csc(-c2cccnc2)n1` [Compound 188, N-(6-(2-(4-fluorophenyl)imidazo[1,2-a]pyridin-3-yl)imidazo[1,2-b]pyridazin-2-yl)-2-(pyridin-3-yl)thiazole-4-carboxamide], the pIC50 in assay [1] was 8.45; in assay [2] it was 8.01.

As for `COc1ccc(-c2nc(C(=O)Nc3cn4nc(-c5c(-c6ccc(F)cc6)nc6ccccn56)ccc4n3)cs2)cc1` [Compound 189, N-(6-(2-(4-fluorophenyl)imidazo[1,2-a]pyridin-3-yl)imidazo[1,2-b]pyridazin-2-yl)-2-(4-methoxyphenyl) thiazole-4-carboxamide, 3 HCl], the pIC50 is 7.77 in assay [1] and 7.49 in assay [2].

The term pIC50 denotes the IC50 on a negative log10 scale, so that one unit is a factor of ten.
